We go through one substance from patent US6339062B1, “Retroinverso polypeptides that mimic or inhibit thrombospondin activity” (Inkine Pharmaceutical Company, Inc., priority 1998, dated 2002).

Marks after values point to notes of the source that are not given here. Where no end group is shown, it is not given here.

Assay [1] deals with washed human platelets. Briefly: Collagen-induced platelet aggregation (Examples 9, 10). Type of assay: cell-based. Particulars: 5 μg/ml collagen; various concentrations; FIG. 10. As for the experimental part: Washed human platelets were suspended in HEPES-buffered saline, containing 5 mM glucose and 350 μg/ml BSA. 0.5 ml aliquots of platelets were aggregated by stirring with 5 μg/ml collagen in the presence of 500 μg/ml of various peptides. Aggregation was measured at 37° C. as decrease in optical absorbance vs. time in a Chrono-log aggregometer and is shown in FIG. 9. 100% aggregation was defined as the maximal decrease in absorbance measured in the absence of peptide. % of control was calculated as the decrease in absorbance measured in the presence of peptide divided by the decrease in absorbance measured in the absence of peptide times 100. Peptides are designated under each bar graph by their amino acid sequence represented using the one letter amino acid code.
Washed human platelets were suspended in HEPES-buffered saline, containing S mM glucose and 350 μg/ml BSA. […] Aggregation was measured at 37° C. as decrease in optical absorbance vs. time in a chrono-log aggregometer and is shown in FIG. 10. 100%; aggregation was defined as the maximal decrease in absorbance measured in the absence of peptide. % of control was calculated as the decrease in absorbance measured in the presence of peptide divided by the decrease in absorbance measured in the absence of peptide times 100.

Assay [2] has as its system mouse B16-F10 melanoma cells. Briefly: Melanoma tumor cell metastasis, peptide i.v. (Example 21). In kind it is in vivo, mice. Particulars: 1 mg peptide i.v. shortly before or after tumor implantation; two weeks; FIG. 12. An excerpt: Mice were sacrificed two weeks later and lung tumors counted. Treatment groups consisted of five animals. The photograph of FIG. 12 depicts three lungs from each treatment group. The black spots are melanoma tumors. All metastasis experiments were repeated 2-3 times showing qualitatively similar results depicted in the bar graph of FIG. 12.

Assay [3] deals with mouse B16-F10 melanoma cells. Briefly: Melanoma lung metastasis, one bolus i.v. or i.p. (Example 22). Particulars: mouse, in vivo. Type of assay: in vivo. The procedure: One bolus injection of Cys-(Acm)-Ser-Val-Thr-Cys-(Acm)-Gly (SEQ ID NO: 6) peptide (1 mg/mouse intravenously or 5 mg/mouse intraperitoneally ) was administered followed by intravenous injection of mouse B16-F10 melanoma cells (100,000). Each treatment group consisted of 5 animals. After 10 days animals were sacrificed and lung tumors counted. […] Error bars represent the standard error of the mean. P values between control and peptide-treated groups <0.001.

Assay [4] deals with human MDA-MB-231 breast carcinoma cells. Briefly: Athymic model of human tumor progression, peptide experiments (Example 24). In kind it is in vivo, athymic mice. The procedure:
To further evaluate the anti-metastatic properties of the Cys-Ser-Val-Thr-Cys-Gly (SEQ ID NO: 1) peptide, we measured the effect of peptide and antibody against the Cys-Ser-Val-Thr-Cys-Gly (SEQ ID NO: 1) receptor in an athymic model of human tumor progression. In this model, human MDA-MB-231 breast carcinoma cells were injected intraperitoneally in athymic mice. Animals were then treated with either peptide or receptor IgG for three weeks after which the extent of lung and liver metastasis is determined.
For the peptide experiments, eighteen mice were inoculated with MDA-MB-231 human breast cancer cells. After 72 hours, mice were randomized to treatment with every-other-day intraperitoneal injections of saline, scrambled peptide, or a Cys-Ser-Val-Thr-Cys-Gly (SEQ ID NO: 1) peptide for 20 days. One mouse treated with the Cys-Ser-Val-Thr-Cys-Gly (SEQ ID NO: 1) peptide expired after traumatic injection. Mice were sacrificed at 21 days. The peritoneal cavity was examined grossly for primary tumor implantation. The liver and lungs were examined histologically for micrometastases. Statistical analysis was performed by Chi-square analysis.

The test system of assay [5] is MMP-9 production in BAE cells. Kind of assay: TSP-1-stimulated endothelial MMP-9 production (Example 27). In kind it is cell-based. The procedure:
BAE cells were treated with TSP-1 as described in Example 27. MMP-9 levels were quantitated from densitometry of the zymograms prepared from the BAE cell conditioned media. The control was 15 μg/ml TSP-1. All other treatments were performed in the presence of 15 μg/ml TSP-1.

Assay [6] relates to rat aorta. Briefly: Angiogenesis in serum-free collagen gel culture of rat aorta (Example 28). In kind it is cell-based. Particulars: compared to untreated control or scrambled peptide control; FIG. 17. From the text: Error bars=SEM. Photo-micrograph (4× magnification) of a representative aortic ring culture treated either with Cys-Ser-Val-Thr-Cys-Gly (SEQ ID NO: 1) or Val-Cys-Thr-Gly-Ser-Cys (SEQ ID NO: 7) (FIG. 17B). The Cys-Ser-Val-Thr-Cys-Gly (SEQ ID NO: 1)-treated culture has fewer capillary outgrowths than the Val-Cys-Thr-Gly-Ser-Cys (SEQ ID NO: 7) scrambled peptide control.

For assay [7], the system named is mouse B16-F10 melanoma cells. Briefly: Direct adhesion to dried peptide (Example 31). Type of assay: cell-based. Particulars: 10 μg of each peptide; one hour; FIG. 20. The procedure:
Peptide effect on direct adhesion was tested by drying 10 μg of each peptide on the bottom of a 96well microtiter plate. Plates were blocked with BSA. Mouse B16-F10 melanoma cells (50,000) were plated in each well and allowed to attach for one hour. Non-adherent cells were aspirated out, plates rinsed, and adherent cells were fixed, stained, and counted. The error bars represent the standard deviation.

Where [8] appears, read: i.p. every other day for 20 days, sacrificed at 21 days.

As to “CSVTCG (cysteine pairing not given here)”, the “collagen-induced platelet aggregation, dose response” value in assay [1] was “inhibit collagen-induced platelet aggregation”. In assay [2], the “melanoma cell metastasis (lung tumors)” value was “significantly blocked”. Further, the “blocking activity in metastasis and the other assays, peptide versus blocked analogue” value in assay [3] was “identical blocking activity”. For the same substance, the “in vivo breast cancer progression; metastases in the two organs examined” value in assay [4] (compared with saline or scrambled peptide groups) is “significantly decreased metastases”. For the same substance, the intraperitoneal tumors result in assay [4] (gross examination at 21 days) is “fewer and smaller intraperitoneal tumors”. Also, in assay [4] (setting [8]), the “Liver: no. of animals with metastases/total no. of animals” value is recorded as 1/5* and the “Lungs: no. of animals with metastases/total no. of animals” value is reported as 0/5. In assay [5] (0.20 mM, with 15 μg/ml TSP-1), the “% inhibition (MMP-9)” value worked out at 86% and the “Relative MMP-9 Levels” value is given as 0.14. Moreover, in assay [5] (at high doses), the “inhibited MMP-9 production” value came out at 86%. The “angiogenesis (capillary outgrowths)” value in assay [6] is “inhibited angiogenesis”. Further, in assay [7], the “adhesion of cells to dried peptide” value is “half as well as fibronectin and TSP-1”.
